Laboratory results from patent publication US7468446B2, “Substituted heterocyclic compounds and uses thereof” (Celgene Corporation, priority 2004, dated 2008).

Compared with `CCOc1cc(C(=CC#N)c2ccc3c(c2)CCO3)ccc1OC` (mixture of isomers) [compound 1, (E/Z) 3-(2,3-Dihydro-benzofuran-5-yl)-3-(3-ethoxy-4-methoxy-phenyl)-acrylonitrile], `CCOc1cc(C(=CC#N)c2ccc3c(c2)OCCN3C)ccc1OC` (mixture of isomers) [compound 3, (E/Z) 3-(3-Ethoxy-4-methoxy-phenyl)-3-(4-methyl-3,4-dihydro-2H-benzo[1,4]oxazin-7-yl)-acrylonitrile] is higher in melting point: 49 to 51 °C for the first, 99 to 101 °C for the second.

First: CCOc1cc(C(=CC#N)c2ccc3c(c2)nnn3C)ccc1OC (mixture of isomers) [compound 4, (E/Z) 3-(3-Ethoxy-4-methoxy-phenyl)-3-(1-methyl-1H-benzotriazol-5-yl)-acrylonitrile]
Second: CCOc1cc(C(=CC#N)c2ccc3ncccc3c2)ccc1OC (mixture of isomers) [compound 5, (E/Z) 3-(3-Ethoxy-4-methoxy-phenyl)-3-quinolin-6-yl-acrylonitrile]
The melting point of the first is higher: 180 to 182 °C for the first, 114 to 116 °C for the second.

First: COc1cc(OC)cc(C(=CC#N)c2ccc3ncccc3c2)c1 (mixture of isomers) [compound 6, (E/Z) 3-(3,5-Dimethoxy-phenyl)-3-quinolin-6-yl-acrylonitrile]
Second: COc1cc(OC)cc(C(=CC#N)c2ccc3ccn(C)c3c2)c1 (mixture of isomers) [compound 7, (E/Z)-3-(3,5-Dimethoxy-phenyl)-3-(1-methyl-1H-indol-6-yl)-acrylonitrile]
The melting point of the first is higher: 142 to 144 °C for the first, 117 to 119 °C for the second.

First: CCOc1cc(C(=CC#N)c2ccc3cc[nH]c3c2)ccc1OC (mixture of isomers) [compound 8, (E/Z)-3-(3-Ethoxy-4-methoxy-phenyl)-3-(1H-indol-6-yl)-acrylonitrile]
Second: CCOc1cc(C(=CC#N)c2ccc3occc3c2)ccc1OC (mixture of isomers) [compound 10, (E/Z)-3-Benzofuran-5-yl-3-(3-ethoxy-4-methoxy-phenyl)-acrylonitrile]
The melting point of the first is higher: 132 to 134 °C for the first, 95 to 97 °C for the second.

`COc1cc(OC)cc(C(=CC#N)c2ccc3c(c2)OCCN3C)c1` [compound 2, 3-(3,5-Dimethoxy-phenyl)-3-(4-methyl-3,4-dihydro-2H-benzo[1,4]oxazin-7-yl)-acrylonitrile] gave a melting point of 119 to 121 °C.
